In patent US9550781B2, “Kinase modulating compounds, compositions containing the same and use thereof” (CENTAURUS BIOPHARMA CO., LTD., priority 2011, dated 2017):

These molecules were tested against recombinant B-RAF enzyme (Homo sapiens (Human), UniProt P15056) (assay: In vitro B-RAF Kinase Assay (HTRF), IC50 determination). Settings: 6HIS-Mek1 substrate, 60 min at 23° C.
recombinant B-RAF enzyme, sequence (P15056 whole entry, species assumed): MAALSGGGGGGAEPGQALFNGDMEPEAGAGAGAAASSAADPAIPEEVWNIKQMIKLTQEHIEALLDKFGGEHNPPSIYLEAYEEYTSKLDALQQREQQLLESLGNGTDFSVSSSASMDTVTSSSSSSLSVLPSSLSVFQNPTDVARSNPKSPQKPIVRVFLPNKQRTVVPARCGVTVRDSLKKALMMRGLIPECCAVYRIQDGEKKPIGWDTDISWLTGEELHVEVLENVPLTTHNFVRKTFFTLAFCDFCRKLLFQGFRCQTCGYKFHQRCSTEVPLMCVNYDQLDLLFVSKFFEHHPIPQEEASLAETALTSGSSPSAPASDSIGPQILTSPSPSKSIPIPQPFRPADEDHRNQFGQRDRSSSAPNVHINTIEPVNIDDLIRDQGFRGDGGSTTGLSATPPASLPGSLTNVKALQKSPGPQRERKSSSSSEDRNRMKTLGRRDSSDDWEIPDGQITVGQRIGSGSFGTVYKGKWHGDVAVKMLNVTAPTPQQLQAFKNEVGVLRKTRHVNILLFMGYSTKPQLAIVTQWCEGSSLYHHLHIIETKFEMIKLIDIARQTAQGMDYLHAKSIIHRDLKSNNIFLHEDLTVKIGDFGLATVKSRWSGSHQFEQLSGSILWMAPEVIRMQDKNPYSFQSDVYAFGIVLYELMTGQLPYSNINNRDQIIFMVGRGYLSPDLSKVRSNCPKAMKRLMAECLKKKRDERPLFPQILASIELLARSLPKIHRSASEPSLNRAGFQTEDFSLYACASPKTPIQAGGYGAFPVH
Type: biochemical
Protocol: In vitro B-RAF Kinase Assay. To determine in vitro activities of recombinant B-RAF enzyme, a Homogeneous Time-Resolved Fluorescence (HTRF) assay was performed. […] Meanwhile, an Anti-6HIS-d2 antibody (Anti-6HIS-d2, Cisbio international) was added to detection system. When the two antibodies were close enough, energy, transfer was happened between Eu and d2, then activities of enzyme was determine by measuring fluorescence intensity (320 nm excitation, 665 nm emission).
IC50 determination. To evaluate in vitro potency of compounds against B-RAF enzyme, the IC50 values of compounds of this invention were determined. Compounds were 3-fold serially diluted with 100% DMSO from 1 mM, then 4 ml of compounds were transferred to 96 ml of reaction buffer (50 mM HEPES pH7.4, 10 mM MgCl2, 1 mM EGTA, 0.01% Tween-20, 0.005% BAS, 2 mM DTT). […] Then 2.5 ml of 4×ATP (2 mM) was added to the reaction system and initiated the reaction. The assay plate was incubated in an incubator for 60 min at 23° C., then the reaction was terminated by adding 5 ml of detection solution containing Eu3+ cryptate-labeled anti-phosphotyrosine PT66 antibody, and 5 ml of Anti-6HIS-d2 antibody. The plate was incubated for 1 h at 23° C. and the fluorescent signal was read with an EnVision multilable plate reader (PerkinElmer). IC50 values of compounds were generated using GraFit software (Version 6.0).
CCCS(=O)(=O)Nc1ccc(F)c(Nc2ncccc2-c2ncnc3[nH]cnc23)c1F [Example 1, N-(3-(3-(9H-purin-6-yl)pyridin-2-ylamino)-2,4-difluorophenyl)propane-1-sulfonamide] gave an IC50 of under 100 nM.
CCCS(=O)(=O)Nc1ccc(F)c(Nc2ncccc2-c2ncnc3[nH]c(C)nc23)c1F [Example 3, N-(2,4-difluoro-3-(3-(8-methyl-9H-purin-6-yl)pyridin-2-ylamino)phenyl)propane-1-sulfonamide] showed an IC50 of under 500 nM.
CCCS(=O)(=O)Nc1ccc(F)c(Nc2ncccc2-c2ncnc3[nH]cnc23)c1 [Example 4, N-(3-(3-(9H-purin-6-yl)pyridin-2-ylamino)-4-fluorophenyl)propane-1-sulfonamide] gave an IC50 of under 100 nM.
For CCCS(=O)(=O)Nc1ccc(Cl)c(Nc2ncccc2-c2ncnc3[nH]cnc23)c1 [Example 5, N-(3-(3-(9H-purin-6-yl)pyridin-2-ylamino)-4-chlorophenyl)propane-1-sulfonamide], the IC50 was under 100 nM.
With CCCS(=O)(=O)Nc1ccc(C)c(Nc2ncccc2-c2ncnc3[nH]cnc23)c1 [Example 6, N-(3-(3-(9H-purin-6-yl)pyridin-2-ylamino)-4-methylphenyl)propane-1-sulfonamide] the IC50 was under 100 nM.
CCCS(=O)(=O)Nc1ccc(Cl)c(Nc2ncccc2-c2ncnc3[nH]cnc23)c1F [Example 7, N-(3-(3-(9H-purin-6-yl)pyridin-2-ylamino)-4-chloro-2-fluorophenyl)propane-1-sulfonamide] showed an IC50 of under 100 nM.
With CCCS(=O)(=O)Nc1ccc(F)c(Nc2ncccc2-c2ncnc3[nH]cnc23)c1Cl [Example 8, N-(3-(3-(9H-purin-6-yl)pyridin-2-ylamino)-2-chloro-4-fluorophenyl)propane-1-sulfonamide] the IC50 was under 100 nM.
O=S(=O)(CCCF)Nc1ccc(Cl)c(Nc2ncccc2-c2ncnc3[nH]cnc23)c1F [Example 9, N-(3-(3-(9H-purin-6-yl)pyridin-2-ylamino)-4-chloro-2-fluorophenyl)-3-fluoropropane-1-sulfonamide] showed an IC50 of under 100 nM.
O=S(=O)(CCCF)Nc1ccc(F)c(Nc2ncccc2-c2ncnc3[nH]cnc23)c1F [Example 10, N-(3-(3-(9H-purin-6-yl)pyridin-2-ylamino)-2,4-difluorophenyl)-3-fluoropropane-1-sulfonamide] gave an IC50 of under 100 nM.
O=S(=O)(CCl)Nc1ccc(F)c(Nc2ncccc2-c2ncnc3[nH]cnc23)c1F [Example 11, N-(3-(3-(9H-purin-6-yl)pyridin-2-ylamino)-2,4-difluorophenyl)-1-chloromethanesulfonamide] showed an IC50 of under 500 nM.
Work on CCS(=O)(=O)Nc1ccc(F)c(Nc2ncccc2-c2ncnc3[nH]cnc23)c1F [Example 12, N-(3-(3-(9H-purin-6-yl)pyridin-2-ylamino)-2,4-difluorophenyl)ethanesulfonamide] yielded an IC50 of under 1000 nM.
CS(=O)(=O)Nc1ccc(F)c(Nc2ncccc2-c2ncnc3[nH]cnc23)c1F [Example 13, N-(3-(3-(9H-purin-6-yl)pyridin-2-ylamino)-2,4-difluorophenyl)methanesulfonamide] showed an IC50 of under 500 nM.
Work on O=S(=O)(Nc1ccc(F)c(Nc2ncccc2-c2ncnc3[nH]cnc23)c1F)c1ccc(F)c(F)c1 [Example 14, N-(3-(3-(9H-purin-6-yl)pyridin-2-ylamino)-2,4-difluorophenyl)-3,4-difluorobenzenesulfonamide] yielded an IC50 of under 500 nM.
With O=S(=O)(Nc1ccc(F)c(Nc2ncccc2-c2ncnc3[nH]cnc23)c1F)c1ccccc1 [Example 15, N-(3-(3-(9H-purin-6-yl)pyridin-2-ylamino)-2,4-difluorophenyl)benzenesulfonamide] the IC50 was under 100 nM.
For O=S(=O)(Nc1ccc(F)c(Nc2ncccc2-c2ncnc3[nH]cnc23)c1F)c1ccc(Cl)cc1 [Example 17, N-(3-(3-(9H-purin-6-yl)pyridin-2-ylamino)-2,4-difluorophenyl)-4-chlorobenzenesulfonamide], the IC50 was under 500 nM.
Work on O=S(=O)(CCC(F)(F)F)Nc1ccc(F)c(Nc2ncccc2-c2ncnc3[nH]cnc23)c1F [Example 18, N-(3-(3-(9H-purin-6-yl)pyridin-2-ylamino)-2,4-difluorophenyl)-3,3,3-trifluoropropane-1-sulfon amide] yielded an IC50 of under 100 nM.
O=S(=O)(CC(F)(F)F)Nc1ccc(F)c(Nc2ncccc2-c2ncnc3[nH]cnc23)c1F [Example 19, N-(3-(3-(9H-purin-6-yl)pyridin-2-ylamino)-2,4-difluorophenyl)-2,2,2-trifluoromethanesulfonamide] was tested, and the IC50 was under 100 nM.
C=CS(=O)(=O)Nc1ccc(F)c(Nc2ncccc2-c2ncnc3[nH]cnc23)c1F [Example 20, N-(3-(3-(9H-purin-6-yl)pyridin-2-ylamino)-2,4-difluorophenyl)ethenesulfonamide] showed an IC50 of under 500 nM.
Work on O=S(=O)(Nc1ccc(F)c(Nc2ncccc2-c2ncnc3[nH]cnc23)c1F)C1CC1c1ccccc1 (centres unmarked) [Example 21, N-(3-(3-(9H-purin-6-yl)pyridin-2-ylamino)-2,4-difluorophenyl)-2-phenylcyclopropane-1-sulfonamide] yielded an IC50 of under 500 nM.
COc1ccc(C2CC2S(=O)(=O)Nc2ccc(F)c(Nc3ncccc3-c3ncnc4[nH]cnc34)c2F)cc1 (centres unmarked) [Example 22, N-(3-(3-(9H-purin-6-yl)pyridin-2-ylamino)-2,4-difluorophenyl)-2-(4-methoxyphenyl)cyclopropane-1-sulfonamide] gave an IC50 of under 1000 nM.
O=S(=O)(Nc1ccc(F)c(Nc2ncccc2-c2ncnc3[nH]cnc23)c1F)c1ccc(F)cc1 [Example 23, N-(3-(3-(9H-purin-6-yl)pyridin-2-ylamino)-2,4-difluorophenyl)-4-fluorobenzenesulfonamide] showed an IC50 of under 1000 nM.
In the case of O=S(=O)(Nc1ccc(F)c(Nc2ncccc2-c2ncnc3[nH]cnc23)c1F)c1ccsc1 [Example 24, N-(3-(3-(9H-purin-6-yl)pyridin-2-ylamino)-2,4-difluorophenyl)thiophene-3-sulfonamide], the IC50 is reported as under 100 nM.
Work on CCCS(=O)(=O)Nc1ccc(F)c(Nc2ncccc2-c2ncnc3[nH]ncc23)c1F [Example 25, N-(3-(3-(1H-pyrazolo[3,4-d]pyrimidin-4-yl)pyridin-2-ylamino)-2,4-difluorophenyl)propane-1-sulfonamide] yielded an IC50 of under 500 nM.
CCCS(=O)(=O)Nc1ccc(F)c(Nc2ncccc2-c2ncnc3[nH]ccc23)c1F [Example 26, N-(3-(3-(7H-pyrrolo[2,3-d]pyrimidin-4-yl)pyridin-2-ylamino)-2,4-difluorophenyl)propane-1-sulfonamide] showed an IC50 of under 500 nM.
CCCS(=O)(=O)Nc1ccc(C)c(Nc2ccccc2-c2ncnc3[nH]cnc23)c1 [Example 27, N-(3-(2-(9H-purin-6-yl)phenylamino)-4-methylphenyl)propane-1-sulfonamide] showed an IC50 of under 100 nM.
For CCCS(=O)(=O)Nc1ccc(F)c(Nc2ccccc2-c2ncnc3[nH]cnc23)c1F [Example 28, N-(3-(2-(9H-purin-6-yl)phenylamino)-2,4-difluorophenyl)propane-1-sulfonamide], the IC50 was under 1000 nM.
